Measurements published in patent USRE39616E1, “Aminoindan derivatives” (priority 1996, dated 2007).
pIC50: −log10 of the molar value.

Each molecule was assayed against T1, Human erythrocyte acetylcholinesterase (Homo sapiens, UniProt P22303) (assay: biochemical). Settings: AChE Inhibition In vitro IC50.
T1 construct: Human erythrocyte acetylcholinesterase (type XIII, Sigma Israel); purchased Sigma Israel type XIII; host or cells: human erythrocytes
T1 sequence (P22303 32-617 isoform P22303-2 limits assumed): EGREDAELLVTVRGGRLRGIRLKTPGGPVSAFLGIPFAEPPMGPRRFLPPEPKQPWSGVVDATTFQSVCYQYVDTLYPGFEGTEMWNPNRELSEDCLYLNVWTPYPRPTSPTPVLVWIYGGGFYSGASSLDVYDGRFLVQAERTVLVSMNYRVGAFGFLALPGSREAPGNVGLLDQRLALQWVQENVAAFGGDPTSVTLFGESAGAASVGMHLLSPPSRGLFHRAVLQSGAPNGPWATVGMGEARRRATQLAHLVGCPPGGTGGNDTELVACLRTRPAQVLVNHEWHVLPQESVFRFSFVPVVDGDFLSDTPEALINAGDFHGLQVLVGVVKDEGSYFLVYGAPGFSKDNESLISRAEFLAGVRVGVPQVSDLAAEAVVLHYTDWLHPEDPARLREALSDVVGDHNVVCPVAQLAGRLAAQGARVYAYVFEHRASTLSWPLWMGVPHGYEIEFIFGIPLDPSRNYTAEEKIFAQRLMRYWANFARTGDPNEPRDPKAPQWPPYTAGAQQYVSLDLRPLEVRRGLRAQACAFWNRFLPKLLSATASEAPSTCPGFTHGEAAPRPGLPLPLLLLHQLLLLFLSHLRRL
Type: biochemical
Description: Human erythrocyte acetylcholinesterase (type XIII, Sigma Israel), was prepared in a stock solution of 1 U/ml, containing Triton (1%) and bovine serum albumin (0.05%) in phosphate buffer (pH 8). The enzyme (0.05U) was incubated with 3-5 different concentrations of test compound (in triplicate) for periods of from 15 to 60 minutes at 37° C. […] The percentage inhibition of AChE by each concentration of drug is calculated by comparison with that of enzyme in the absence of drug.
Molecule `C#CCNC1CCc2ccc(OC(=O)N(C)CCCC)cc21` (centres unmarked) [Compound 81] has a pIC50 of 4.94.

Same assay, conditions: read-out: AChE Inhibition In vitro IC50
`C#CCNC1CCc2ccc(OC(=O)NCCC)cc21` (centres unmarked) [Compound 57] gave a pIC50 of 5.62.

The molecules below were run against T2, MAO-A (Mus musculus, UniProt Q64133) (assay: Inhibition of MAO activity ex vivo (brain)). Settings: mice, brain tissue.
T2 construct: from tissue; host or cells: mouse brain
T2 sequence (Q64133 1-526): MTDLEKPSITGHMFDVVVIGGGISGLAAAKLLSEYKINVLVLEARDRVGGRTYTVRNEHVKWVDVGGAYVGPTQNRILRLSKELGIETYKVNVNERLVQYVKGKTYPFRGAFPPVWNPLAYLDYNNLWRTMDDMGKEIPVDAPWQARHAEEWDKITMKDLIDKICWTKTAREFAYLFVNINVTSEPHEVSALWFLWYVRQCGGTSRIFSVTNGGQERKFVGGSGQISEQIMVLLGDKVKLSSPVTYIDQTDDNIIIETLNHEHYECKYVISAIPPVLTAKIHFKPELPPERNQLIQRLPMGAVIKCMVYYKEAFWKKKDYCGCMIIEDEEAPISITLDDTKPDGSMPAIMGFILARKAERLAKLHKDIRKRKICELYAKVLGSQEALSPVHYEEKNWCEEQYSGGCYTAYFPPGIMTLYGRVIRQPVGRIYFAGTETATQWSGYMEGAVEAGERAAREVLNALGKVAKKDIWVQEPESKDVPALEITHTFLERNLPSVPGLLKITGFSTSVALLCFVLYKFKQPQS
Type: in vivo, mice
Description: (§1) Substrate concentrations used were 50 μM (PEA) and 1 mM (5-HT).
(§2) Male Sabra mice, weighing 45-50 g were injected with test compound solutions (prepared in 0.9% saline). Each dose was administered to two or three mice. The mice were sacrificed two hours after drug administration or at a time corresponding to the peak AChE inhibition time (see Table 11). The brain and liver were rapidly dissected and stored in appropriate vials on ice. The tissues were weighed, diluted to ½ in sucrose 0.3M and stored at −20° C. before performance of the MAO assay described above. The results given in Table 11 relate to measurements made on brain tissue only.
In the case of `CCN(C)C(=O)Oc1cccc2c1C(N)CC2` (centres unmarked) [Compound 5], the “MAO-A Inhibition Ex vivo ED50” value was >>277 μmoles/kg. With `CNC1CCc2ccc(OC(=O)N(C)C)cc21` (centres unmarked) [Compound 8] the “MAO-A Inhibition Ex vivo ED50” value was >>50 μmoles/kg. With `C#CCNC1CCc2ccc(OC(=O)N(C)CCCC)cc21` (centres unmarked) [Compound 81] the “MAO-A Inhibition Ex vivo ED50” value was >>100 μmoles/kg.

The molecules below were run against T3, MAO-B (Mus musculus, UniProt Q8BW75) (assay: Inhibition of MAO activity ex vivo (brain)). Settings: mice, brain tissue.
T3 construct: from tissue; host or cells: mouse brain
T3 sequence (Q8BW75 1-520): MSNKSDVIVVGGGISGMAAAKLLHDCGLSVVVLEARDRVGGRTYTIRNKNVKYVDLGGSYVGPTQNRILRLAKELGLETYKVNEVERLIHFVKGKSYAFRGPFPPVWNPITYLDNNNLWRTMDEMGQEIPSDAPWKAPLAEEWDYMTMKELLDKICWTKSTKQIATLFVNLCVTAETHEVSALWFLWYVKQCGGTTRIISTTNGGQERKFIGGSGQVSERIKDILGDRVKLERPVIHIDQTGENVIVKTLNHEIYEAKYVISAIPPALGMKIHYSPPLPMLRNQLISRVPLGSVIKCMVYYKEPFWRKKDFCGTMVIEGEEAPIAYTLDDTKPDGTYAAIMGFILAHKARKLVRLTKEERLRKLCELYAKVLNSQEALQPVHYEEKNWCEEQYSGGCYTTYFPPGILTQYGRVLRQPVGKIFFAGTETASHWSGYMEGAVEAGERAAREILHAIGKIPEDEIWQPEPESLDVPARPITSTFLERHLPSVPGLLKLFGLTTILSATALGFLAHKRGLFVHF
Type: in vivo, mice
Description: as §1, §2
`CCN(C)C(=O)Oc1cccc2c1C(N)CC2` (centres unmarked) [Compound 5] was tested, and the “MAO-B Inhibition Ex vivo ED50” value was >>277 μmoles/kg. `CNC1CCc2ccc(OC(=O)N(C)C)cc21` (centres unmarked) [Compound 8] was tested, and the “MAO-B Inhibition Ex vivo ED50” value was >>50 μmoles/kg. For `C#CCNC1CCc2ccc(OC(=O)N(C)CCCC)cc21` (centres unmarked) [Compound 81], the “MAO-B Inhibition Ex vivo ED50” value was >>100 μmoles/kg.

What follows are molecules tested against T4, whole brain AChE (Mus musculus, UniProt P21836) (assay: not given). Settings: mice, whole brain; at peak of activity.
T4 sequence (P21836 32-614): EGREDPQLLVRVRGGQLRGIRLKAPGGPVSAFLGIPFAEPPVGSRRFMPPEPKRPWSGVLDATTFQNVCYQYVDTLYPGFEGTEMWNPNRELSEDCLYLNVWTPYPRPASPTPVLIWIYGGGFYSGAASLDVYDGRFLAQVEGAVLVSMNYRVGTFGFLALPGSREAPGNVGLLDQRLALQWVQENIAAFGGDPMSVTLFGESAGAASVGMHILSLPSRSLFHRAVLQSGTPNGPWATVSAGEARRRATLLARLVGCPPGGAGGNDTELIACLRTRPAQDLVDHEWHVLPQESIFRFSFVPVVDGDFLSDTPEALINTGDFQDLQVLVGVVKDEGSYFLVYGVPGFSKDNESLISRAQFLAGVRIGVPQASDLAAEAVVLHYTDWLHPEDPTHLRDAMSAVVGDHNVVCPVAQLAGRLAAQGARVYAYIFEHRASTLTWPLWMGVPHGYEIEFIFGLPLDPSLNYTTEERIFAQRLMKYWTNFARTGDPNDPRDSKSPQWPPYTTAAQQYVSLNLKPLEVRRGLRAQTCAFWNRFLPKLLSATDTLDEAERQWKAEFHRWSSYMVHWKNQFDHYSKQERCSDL
`CCN(C)C(=O)Oc1cccc2c1C(N)CC2` (centres unmarked) [Compound 5] was tested, and the “AChE Inhibition Ex vivo ED50 (AC)” value was 85.0 µmol/kg. `CNC1CCc2ccc(OC(=O)N(C)C)cc21` (centres unmarked) [Compound 8] was tested, and the “AChE Inhibition Ex vivo ED50 (AC)” value was 10.0 µmol/kg. With `C#CCNC1CCc2ccc(OC(=O)N(C)C)cc21` (centres unmarked) [Compound 23] the “AChE Inhibition Ex vivo ED50 (AC)” value was 22.4 µmol/kg. `C#CCNC1CCc2ccc(OC(=O)NCCC)cc21` (centres unmarked) [Compound 57] was tested, and the “AChE Inhibition Ex vivo ED50 (AC)” value was 70 µmol/kg. `C#CCNC1CCc2ccc(OC(=O)N(C)CCCC)cc21` (centres unmarked) [Compound 81] was tested, and the “AChE Inhibition Ex vivo ED50 (AC)” value was 40 µmol/kg.

Same assay, conditions: mouse, in vivo
For `CCN(C)C(=O)Oc1cccc2c1C(N)CC2` (centres unmarked) [Compound 5], the “AChE Inhibition Time to peak activity t” value was 60 min and the “AChE Inhibition Time to return to 50% of peak t” value was over 120 min. For `CNC1CCc2ccc(OC(=O)N(C)C)cc21` (centres unmarked) [Compound 8], the “AChE Inhibition Time to peak activity t” value was 15 to 30 min and the “AChE Inhibition Time to return to 50% of peak t” value was over 60 min. For `C#CCNC1CCc2ccc(OC(=O)N(C)C)cc21` (centres unmarked) [Compound 23], the “AChE Inhibition Time to return to 50% of peak t” value was 70 min. With `C#CCNC1CCc2ccc(OC(=O)N(C)CCCC)cc21` (centres unmarked) [Compound 81] the “AChE Inhibition Time to peak activity t” value was 90 min and the “AChE Inhibition Time to return to 50% of peak t” value was over 120 min.

Each molecule was assayed on mice (assay: not given). Settings: mice, within 6 hours after administration.
In the case of `CCN(C)C(=O)Oc1cccc2c1C(N)CC2` (centres unmarked) [Compound 5], the “Acute Toxicity LD50 (LD)” value was 840 µmol/kg. With `CNC1CCc2ccc(OC(=O)N(C)C)cc21` (centres unmarked) [Compound 8] the “Acute Toxicity LD50 (LD)” value was 87 µmol/kg.

Same assay, conditions: mouse, in vivo
With `C#CCNC1CCc2ccc(OC(=O)N(C)C)cc21` (centres unmarked) [Compound 23] the “Acute Toxicity LD50 (LD)” value was 255 µmol/kg. In the case of `C#CCNC1CCc2ccc(OC(=O)N(C)CCCC)cc21` (centres unmarked) [Compound 81], the “Acute Toxicity LD50 (LD)” value was 920 µmol/kg and the “Therapeutic Ratio LD/AC” value was 23.

These molecules were tested against T5, MAO-A (Rattus norvegicus, UniProt P21396) (assay: Inhibition of MAO activity in vitro, 5-HT as substrate). Settings: MAO-A Inhibition In vitro IC50, rat brain homogenate, 5-HT substrate.
T5 sequence (P21396 1-526): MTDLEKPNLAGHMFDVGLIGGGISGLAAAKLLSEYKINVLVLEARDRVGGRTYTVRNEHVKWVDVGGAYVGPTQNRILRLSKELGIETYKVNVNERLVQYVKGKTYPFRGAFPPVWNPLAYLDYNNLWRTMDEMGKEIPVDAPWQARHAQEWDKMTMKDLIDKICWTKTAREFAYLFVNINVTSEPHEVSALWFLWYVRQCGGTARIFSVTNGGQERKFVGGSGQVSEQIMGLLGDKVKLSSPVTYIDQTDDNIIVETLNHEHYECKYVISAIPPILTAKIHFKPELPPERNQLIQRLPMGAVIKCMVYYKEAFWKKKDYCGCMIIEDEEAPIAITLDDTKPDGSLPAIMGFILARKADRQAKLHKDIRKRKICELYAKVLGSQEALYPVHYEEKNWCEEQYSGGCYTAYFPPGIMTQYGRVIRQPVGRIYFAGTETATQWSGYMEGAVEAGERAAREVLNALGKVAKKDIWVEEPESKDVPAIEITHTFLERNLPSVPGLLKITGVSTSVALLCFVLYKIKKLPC
Type: biochemical
Set-up: The MAO enzyme source was a homogenate of rat brain in 0.3M sucrose; from tissue; host or cells: rat brain homogenate, 600 g supernatant
Description: as §1
`CCNC1CCc2ccc(OC(=O)N(C)C)cc21` (centres unmarked) [Compound 7] was tested, and the pIC50 was 3.22. For `C#CCNC1CCc2ccc(OC(=O)N(C)C)cc21` (centres unmarked) [Compound 23], the pIC50 was 3.10. Molecule `C#CCNC1CCc2ccc(OC(=O)NCCC)cc21` (centres unmarked) [Compound 57] has a pIC50 of 4.05.

Same assay, conditions: rat brain homogenate, 5-HT substrate; read-out: MAO-A Inhibition In vitro IC50
`CNC1CCc2ccc(OC(=O)N(C)C)cc21` (centres unmarked) [Compound 8] gave a pIC50 of 4.30.

Each molecule was assayed against T6, MAO-B (Rattus norvegicus, UniProt P19643) (assay: Inhibition of MAO activity in vitro, PEA as substrate). Settings: MAO-B Inhibition In vitro IC50, rat brain homogenate.
T6 sequence (P19643 1-520): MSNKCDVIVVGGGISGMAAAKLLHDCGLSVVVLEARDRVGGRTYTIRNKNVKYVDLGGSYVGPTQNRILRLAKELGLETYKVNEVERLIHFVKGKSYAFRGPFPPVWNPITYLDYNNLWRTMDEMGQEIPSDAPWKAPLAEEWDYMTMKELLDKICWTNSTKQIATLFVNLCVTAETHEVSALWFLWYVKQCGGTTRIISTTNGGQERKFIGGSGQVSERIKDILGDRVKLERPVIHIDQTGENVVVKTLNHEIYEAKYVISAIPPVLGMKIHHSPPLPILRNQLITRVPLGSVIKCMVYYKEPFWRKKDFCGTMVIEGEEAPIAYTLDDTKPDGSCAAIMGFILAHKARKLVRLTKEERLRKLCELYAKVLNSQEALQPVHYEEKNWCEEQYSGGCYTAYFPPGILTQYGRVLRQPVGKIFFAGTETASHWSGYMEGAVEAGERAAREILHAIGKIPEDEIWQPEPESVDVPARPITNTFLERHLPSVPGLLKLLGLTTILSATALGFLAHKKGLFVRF
Type: biochemical
Set-up: The MAO enzyme source was a homogenate of rat brain in 0.3M sucrose; from tissue; host or cells: rat brain homogenate, 600 g supernatant
Description: as §1
Work on `CCNC1CCc2ccc(OC(=O)N(C)C)cc21` (centres unmarked) [Compound 7] yielded a pIC50 of under 3.00. Work on `C#CCNC1CCc2ccc(OC(=O)N(C)C)cc21` (centres unmarked) [Compound 23] yielded a pIC50 of 3.22.

Same assay, conditions: rat brain homogenate, read-out: MAO-B Inhibition In vitro IC50
`C#CCNC1CCc2ccc(OC(=O)NCCC)cc21` (centres unmarked) [Compound 57] was tested, and the pIC50 was 4.60.
